Results as given in ChEMBL document CHEMBL3612058, “Synthesis and biological evaluation of a new series of 2-amino-3-aroyl thiophene derivatives as agonist allosteric modulators of the A1 adenosine receptor. A position-dependent effect study” (Eur J Med Chem, 2015).
Active and inactive are the calls of the source. The rule behind the calls is not given here.

Key:
[1] = molecular target: T1, Adenosine receptor A1 (Homo sapiens) (UniProt P30542); test: Positive allosteric enhancement of human cloned adenosine A1 receptor expressed in CHO cells assessed as inhibition of forskolin-induced cAMP accumulation at 100 nM using [3H]-cAMP by scintillation counting relative to control in presence of 1 pM of CCPA; format: functional, cell-based
T1 sequence (whole entry): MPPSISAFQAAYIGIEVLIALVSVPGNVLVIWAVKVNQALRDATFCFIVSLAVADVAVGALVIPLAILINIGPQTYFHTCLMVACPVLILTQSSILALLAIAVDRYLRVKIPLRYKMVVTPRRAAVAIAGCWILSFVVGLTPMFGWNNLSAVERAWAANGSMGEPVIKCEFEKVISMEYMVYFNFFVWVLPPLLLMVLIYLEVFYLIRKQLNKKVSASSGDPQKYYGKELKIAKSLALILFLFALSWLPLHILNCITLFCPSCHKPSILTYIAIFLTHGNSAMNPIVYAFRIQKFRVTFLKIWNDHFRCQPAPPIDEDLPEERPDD

[2] = molecular target: T1, Adenosine receptor A1 (Homo sapiens); test: Displacement of [3H]DPCPX from human adenosine A1 receptor expressed in CHO cells at 10 uM after 120 mins by scintillation counting; format: cell-based
[3] = Displacement of [3H]-ZM241385 from human adenosine A2 receptor expressed in CHO cells at 10 uM after 120 mins by scintillation counting; format: cell-based
[4] = molecular target: T2, Adenosine receptor A3 (Homo sapiens) (UniProt P0DMS8); test: Displacement of [3H]-MRE-3008-F20 from human adenosine A3 receptor expressed in CHO cells at 10 uM after 120 mins by scintillation counting; format: cell-based
T2 sequence (whole entry): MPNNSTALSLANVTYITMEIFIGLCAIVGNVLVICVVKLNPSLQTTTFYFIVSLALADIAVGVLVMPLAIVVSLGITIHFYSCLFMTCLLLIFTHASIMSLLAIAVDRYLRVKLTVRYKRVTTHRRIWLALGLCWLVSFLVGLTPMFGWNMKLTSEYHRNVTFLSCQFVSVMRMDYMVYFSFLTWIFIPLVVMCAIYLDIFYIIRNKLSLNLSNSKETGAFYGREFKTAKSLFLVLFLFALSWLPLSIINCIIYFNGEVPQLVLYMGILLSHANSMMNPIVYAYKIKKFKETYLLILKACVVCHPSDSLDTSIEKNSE

[5] = molecular target: T1, Adenosine receptor A1 (Homo sapiens); test: Binding affinity to human adenosine A1 receptor expressed in CHO cells assessed as fold Bmax shift of [3H]-CCPA at 10 uM after 90 mins by [3H]-CCPA binding assay relative to control; format: cell-based
[6] = molecular target: T1, Adenosine receptor A1 (Homo sapiens); test: Binding affinity to human adenosine A1 receptor expressed in CHO cells assessed as fold Ki shift of CCPA at 10 uM after 90 mins by [3H]-CCPA displacement assay relative to control; format: cell-based
[7] = molecular target: T1, Adenosine receptor A1 (Homo sapiens); test: Effect on association binding rate constant of [3H]-NECA to human adenosine A1 receptor expressed in CHO cells at 1 uM after 45 mins by scintillation spectrometry analysis; format: cell-based
[8] = molecular target: T1, Adenosine receptor A1 (Homo sapiens); test: Effect on dissociation binding rate constant of [3H]-NECA to human adenosine A1 receptor expressed in CHO cells at 1 uM after 45 mins by scintillation spectrometry analysis relative to control; format: cell-based
[9] = molecular target: T1, Adenosine receptor A1 (Homo sapiens); test: Increase of [3H]-NECA affinity to human adenosine A1 receptor expressed in CHO cells at 1 uM after 45 mins by scintillation spectrometry analysis relative to control; format: cell-based
[10] = molecular target: T1, Adenosine receptor A1 (Homo sapiens); test: Positive allosteric enhancement of human cloned adenosine A1 receptor expressed in CHO cells assessed as inhibition of forskolin-induced cAMP accumulation at 10 uM using [3H]-cAMP by scintillation counting relative to control; format: functional, cell-based
[11] = molecular target: T1, Adenosine receptor A1 (Homo sapiens); test: Ratio of PD81723 to compound for positive allosteric enhancement of human cloned adenosine A1 receptor expressed in CHO cells assessed as inhibition of forskolin-induced cAMP accumulation at 10 uM using [3H]-cAMP by scintillation counting; format: functional, cell-based
Mus musculus [12] = test: Antinociceptive effect in CD1 mouse assessed as inhibition of formalin-induced pain behavior in paw at 0.3 mg/kg, ip administered 15 mins before formalin challenge measured up to 45 mins relative to control; format: functional
Mus musculus [13] = test: Antinociceptive effect in CD1 mouse assessed as inhibition of formalin-induced pain behavior in paw at 3 mg/kg, ip administered 15 mins before formalin challenge measured up to 45 mins relative to control; format: functional

Compound	inhibition [1] [%]	inhibition [2] [%]	inhibition [3] [%]	inhibition [4] [%]	fold change (FC) [5]	fold change (FC) [6]	Activity [7]	Activity [8]	Activity [9]	inhibition [10] [%]	Ratio [11]	fold change (FC) [8]	fold change (FC) [9]	inhibition in vivo at 0.3 mg/kg (Mus musculus [12]) [%]	inhibition in vivo at 3 mg/kg (Mus musculus [13]) [%]
Cc1sc(N)c(C(=O)c2cccc(C(F)(F)F)c2)c1C	21	< 10	< 10	< 10	1.3	1.4	inactive	inactive	inactive	–	–	–	–	–	–
Nc1sc(-c2ccc(Cl)cc2)c(Cc2ccc(Cl)cc2)c1C(=O)c1ccc(Cl)cc1	84	< 10	< 10	< 10	11	11.7	inactive	–	–	81	3	2.5	2.3	49	82
COc1ccc(-c2sc(N)c(C(=O)c3ccc(Cl)cc3)c2Cc2ccc(SC)cc2)cc1	62	< 10	< 10	< 10	6.5	6.1	–	–	–	62	3	–	–	–	–
Nc1sc(-c2ccccc2)c(Cc2ccc(Cl)cc2)c1C(=O)c1ccc(Cl)cc1	64	< 10	< 10	< 10	6.4	5.6	–	–	–	61	3	–	–	–	–
CSc1ccc(Cc2c(-c3ccc(F)cc3)sc(N)c2C(=O)c2ccc(Cl)cc2)cc1	55	< 10	< 10	< 10	5.3	5.2	–	–	–	52	3	–	–	–	–
Nc1sc(-c2ccc(F)cc2)c(Cc2ccc(F)cc2)c1C(=O)c1ccc(Cl)cc1	41	< 10	< 10	< 10	4.8	3.7	–	–	–	45	3	–	–	–	–
Nc1sc(-c2ccc(Cl)cc2)c(Cc2ccc(F)cc2)c1C(=O)c1ccc(Cl)cc1	73	< 10	< 10	< 10	9.1	9.5	–	–	–	75	3	–	–	–	–
Nc1sc(-c2ccccc2)c(Cc2ccccc2)c1C(=O)c1ccc(Cl)cc1	50	< 10	< 10	< 10	4.9	4.2	–	–	–	51	3	–	–	–	–
COc1ccccc1Cc1c(-c2ccccc2)sc(N)c1C(=O)c1ccc(Cl)cc1	51	< 10	< 10	< 10	5.6	4.9	–	–	–	55	3	–	–	–	–
COc1ccc(Cc2c(-c3ccccc3)sc(N)c2C(=O)c2ccc(Cl)cc2)cc1C	66	< 10	< 10	< 10	8.1	6.1	–	–	–	66	3	–	–	–	–
COc1ccc(Cc2c(-c3ccc(Cl)cc3)sc(N)c2C(=O)c2ccc(Cl)cc2)cc1	67	< 10	< 10	< 10	8.5	6.6	–	–	–	70	3	–	–	–	–
Nc1sc(-c2ccc(F)cc2)c(Cc2ccccc2)c1C(=O)c1ccc(Cl)cc1	49	< 10	< 10	< 10	4.9	3.9	–	–	–	50	3	–	–	–	–
Nc1sc(-c2ccccc2)c(Cc2ccc(C(F)(F)F)cc2)c1C(=O)c1ccc(Cl)cc1	66	< 10	< 10	< 10	9.1	8.9	–	–	–	69	3	–	–	–	–
COc1ccc(-c2sc(N)c(C(=O)c3ccc(Cl)cc3)c2Cc2ccccc2)cc1	47	< 10	< 10	< 10	4.8	3.5	–	–	–	46	3	–	–	–	–
COc1ccc(Cc2c(-c3ccc(F)cc3)sc(N)c2C(=O)c2ccc(Cl)cc2)cc1	59	< 10	< 10	< 10	6.3	5.4	–	–	–	58	3	–	–	–	–
